# Assay results: patent US20240150356A1, “Pyrimidine amide compounds and use thereof” (ALPHALA CO., LTD., priority 2019, published 2024)
# Like-named read-outs stand apart in the source and are kept apart here.
# Tests used:
# Assay type in all cases: cell-based
# [1] = test system: Hep3B cells (hepatocellular carcinoma cell line); assay: In vitro MTS cell viability assay (NCI-60 methodology), Hep3B; details: Homo sapiens, 48 h, 2 days drug incubation, 50% reduction vs time zero, read-out: Hep3B LC50
# Procedure, shortened: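 Following NCI-60 method, MTS viability of Hep3B measured 24 h after plating (time zero) and after a further 2-day exposure to five concentrations (2-fold series). LC50 defined where [(Ti−Tz)/Tz]×100 = −50.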
# [2] = test system: SW480 (colon adenocarcinoma cell line); assay: In vitro MTS cell viability assay (NCI-60 methodology), SW480; details: Homo sapiens, SW480 cells, read-out: SW480 LC50
# Method: (§1) The cell viability measurement is based on the NCI-60 screening methodology (Nat. Rev. Cancer 6, 813-823, 2006). Briefly, cells are inoculated into 96-well plates at the optimal plating density. After 24 h, one of the two plates for Hep3B cell line is processed to determine a time zero cell viability (Tz) by MTS assay (Promega). Compounds are added over a 2-fold serial dilution to provide a total five drug concentrations plus DMSO control. Plates are incubated for a further 2 days, then measured cell viability by MTS assay [control growth (C) and test growth in the presence of drug at the five concentration levels (Ti)]. The LC50 is calculated from [(Ti−Tz)/Tz]×100=−50, which is the drug concentration resulting in a 50% reduction at the end of the drug treatment as compared to that at the beginning.
# (§2) The compounds prepared in Tables 1-10 were tested in three in vitro assays, and the results are shown in Tables 1-10 for Hep3B and Table 11 for SW480 and NCI-H460 shown below. Herein, Hep3B refers to hepatocellular carcinoma cell line, SW480 refers to colon adenocarcinoma cell line, and NCI-H460 refers to human lung cancer cell line.
# (§3) Shown in Tables 11 are in vitro activities of exemplary compounds of formula (I).
# [3] = test system: NCI-H460 (human lung cancer cell line); assay: In vitro MTS cell viability assay (NCI-60 methodology), NCI-H460; details: NCI-H460 cells, read-out: NCI-H460 LC50
# Method: as §1, §2, §3
smiles,measurement,setting,value
"CN(C)CCOc1nc(NC(=O)c2ccc([N+](=O)[O-])s2)c2cnn(-c3ccc(C(C)(C)C)cc3)c2n1 [Compound 6-58, N-(1-(4-(tert-butyl)phenyl)-6-(2-(dimethylamino)ethoxy)-1H-pyrazolo[3,4-d]pyrimidin-4-yl)-5-nitrothiophene-2-carboxamide]",LC50,"[1]; Table 6, MTS",690 nM
same,CC50,[2],4090 nM
same,CC50,[3],3970 nM
"O=C(Nc1nc(-c2cccc(Cl)c2)nc2c1cnn2-c1ccc(F)cc1)c1ccc([N+](=O)[O-])s1 [Compound 6-117, N-(6-(3-chlorophenyl)-1-(4-fluorophenyl)-1H-pyrazolo[3,4-d]pyrimidin-4-yl)-5-nitrothiophene-2-carboxamide]",LC50,"[1]; Table 6, MTS",150 nM
same,CC50,[2],910 nM
same,CC50,[3],600 nM
"COc1ccc(-c2nc(NC(=O)c3ccc([N+](=O)[O-])s3)c3cnn(-c4ccc(F)cc4)c3n2)cn1 [Compound 6-121, N-(1-(4-fluorophenyl)-6-(6-methoxypyridin-3-yl)-1H-pyrazolo[3,4-d]pyrimidin-4-yl)-5-nitrothiophene-2-carboxamide]",LC50,"[1]; Table 6, MTS",70 nM
same,CC50,[2],630 nM
same,CC50,[3],480 nM
"O=C(Nc1nc(-c2ccc(F)cc2)nc2c1cnn2-c1cccc(Cl)c1)c1ccc([N+](=O)[O-])s1 [Compound 6-35, N-(1-(3-chlorophenyl)-6-(4-fluorophenyl)-1H-pyrazolo[3,4-d]pyrimidin-4-yl)-5-nitrothiophene-2-carboxamide]",LC50,"[1]; Table 6, MTS",110 nM
same,CC50,[2],520 nM
same,CC50,[3],500 nM
"COCCOc1ccc(-c2nc(NC(=O)c3ccc([N+](=O)[O-])s3)c3cnn(-c4ccc(F)cc4)c3n2)cn1 [Compound 6-135, N-(1-(4-fluorophenyl)-6-(6-(2-methoxyethoxy)pyridin-3-yl)-1H-pyrazolo[3,4-d]pyrimidin-4-yl)-5-nitrothiophene-2-carboxamide]",LC50,"[1]; Table 6, MTS",220 nM
same,CC50,[2],690 nM
same,CC50,[3],560 nM
"Cn1ncc2c(NC(=O)c3ccc([N+](=O)[O-])s3)nc(-c3ccc(C(F)(F)F)cc3)nc21 [Compound 1-4, N-(1-methyl-6-(4-(trifluoromethyl)phenyl)-1H-pyrazolo[3,4-d]pyrimidin-4-yl)-5-nitrothiophene-2-carboxamide]",CC50,[2],6190 nM
same,CC50,[3],3560 nM
"Cn1ncc2c(NC(=O)c3ccc([N+](=O)[O-])s3)nc(-c3ccc(OC(F)(F)F)cc3)nc21 [Compound 1-5, N-(1-methyl-6-(4-(trifluoromethoxy)phenyl)-1H-pyrazolo[3,4-1]pyrimidin-4-yl)-5-nitrothiophene-2-carboxamide]",CC50,[2],4320 nM
same,CC50,[3],2850 nM
"Cc1csc2c(NC(=O)c3ccc([N+](=O)[O-])s3)nc(-c3ccc(OC(F)(F)F)cc3)nc12 [Compound 4-4, N-(7-methyl-2-(4-(trifluoromethoxy)phenyl)thieno[3,2-d]pyrimidin-4-yl)-5-nitrothiophene-2-carboxamide]",LC50,"[1]; Table 4, MTS",890 nM
"O=C(Nc1nc(-c2ccc(OCC(F)(F)F)nc2)nc2c1cnn2C1CCCCC1)c1ccc([N+](=O)[O-])s1 [Compound 10-49, N-(1-cyclohexyl-6-(6-(2,2,2-trifluoroethoxy)pyridin-3-yl)-1H-pyrazolo[3,4-d]pyrimidin-4-yl)-5-nitrothiophene-2-carboxamide]",LC50,"[1]; Table 10, MTS",630 nM
"CC1CC(C)CC(n2ncc3c(NC(=O)c4ccc([N+](=O)[O-])s4)nc(-c4ccc(Cl)nc4)nc32)C1 (stereo not shown) [Compound 10-70, N-(6-(6-chloropyridin-3-yl)-1-(3,5-dimethylcyclohexyl)-1H-pyrazolo[3,4-d]pyrimidin-4-yl)-5-nitrothiophene-2-carboxamide]",LC50,"[1]; Table 10, MTS",960 nM
O=C(Nc1nc(-c2ccc(F)cc2F)nc2c1cnn2-c1ccc(F)cc1)c1ccc([N+](=O)[O-])s1 [Compound 6-126],LC50,"[1]; Table 6, MTS",350 nM
"COCCN(C)c1ccc(-c2nc(NC(=O)c3ccc([N+](=O)[O-])s3)c3cnn(-c4ccc(F)cc4)c3n2)cn1 [Compound 6-131, N-(1-(4-fluorophenyl)-6-(6-((2-methoxyethyl)(methyl)amino)pyridin-3-yl)-1H-pyrazolo[3,4-d]pyrimidin-4-yl)-5-nitrothiophene-2-carboxamide]",LC50,"[1]; Table 6, MTS",370 nM
Cc1ccc(-c2nc(NC(=O)c3ccc([N+](=O)[O-])s3)c3cnn(C4CCCCC4)c3n2)cn1 [Compound 10-19],LC50,"[1]; Table 10, MTS",1130 nM
"CC(C)(C)c1ccc(-c2nc(NC(=O)c3ccc([N+](=O)[O-])s3)c3cnn(-c4ccccc4)c3n2)cc1 [Compound 5-37, N-(6-(4-(tert-butyl)phenyl)-1-phenyl-1H-pyrazolo[3,4-d]pyrimidin-4-yl)-5-nitrothiophene-2-carboxamide]",LC50,"[1]; Table 5, MTS",780 nM
"O=C(Nc1nc(-c2ccc(Cl)cc2)nc2c1cnn2-c1ccc(Cl)cc1)c1ccc([N+](=O)[O-])s1 [Compound 6-49, N-(1,6-bis(4-chlorophenyl)-1H-pyrazolo[3,4-d]pyrimidin-4-yl)-5-nitrothiophene-2-carboxamide]",LC50,"[1]; Table 6, MTS",170 nM
"O=C(Nc1nc(N2CC[C@H](O)C2)nc2c1cnn2-c1ccccc1)c1ccc([N+](=O)[O-])s1 [Compound 5-4, (S)—N-(6-(3-hydroxypyrrolidin-1-yl)-1-phenyl-1H-pyrazolo[3,4-d]pyrimidin-4-yl)-5-nitrothiophene-2-carboxamide]",LC50,"[1]; Table 5, MTS",1010 nM
"CC1(C)CC=C(c2nc(NC(=O)c3ccc([N+](=O)[O-])s3)c3cnn(-c4ccc(F)cc4)c3n2)CC1 [Compound 6-144, N-(6-(4,4-dimethylcyclohex-1-en-1-yl)-1-(4-fluorophenyl)-1H-pyrazolo[3,4-d]pyrimidin-4-yl)-5-nitrothiophene-2-carboxamide]",LC50,"[1]; Table 6, MTS",550 nM
"CCOC(=O)N1CCC(n2ncc3c(NC(=O)c4ccc([N+](=O)[O-])s4)nc(-c4ccc(F)nc4)nc32)CC1 [Compound 9-2, ethyl 4-(6-(6-fluoropyridin-3-yl)-4-(5-nitrothiophene-2-carboxamide)-1H-pyrazolo [3,4-d]pyrimidin-1-yl)piperidine-1-carboxylate]",LC50,"[1]; Table 9, MTS",> 5000 nM
CC1(C)CCC(n2ncc3c(NC(=O)c4ccc([N+](=O)[O-])s4)nc(-c4ccc(F)cc4)nc32)CC1 [Compound 10-61],LC50,"[1]; Table 10, MTS",550 nM
"CC(C)(C)c1ccc(-n2ncc3c(NC(=O)c4ccc([N+](=O)[O-])s4)nc(-c4ccc(F)cc4)nc32)cc1 [Compound 6-81, N-(1-(4-(tert-butyl)phenyl)-6-(4-fluorophenyl)-1H-pyrazolo[3,4-d]pyrimidin-4-yl)-5-nitrothiophene-2-carboxamide]",LC50,"[1]; Table 6, MTS",940 nM
"CC(C)(C)c1ccc(-n2ncc3c(NC(=O)c4ccc([N+](=O)[O-])s4)nc(N4CCCCC4)nc32)cc1 [Compound 6-63, N-(1-(4-(tert-butyl)phenyl)-6-(piperidin-1-yl)-1H-pyrazolo[3,4-d]pyrimidin-4-yl)-5-nitrothiophene-2-carboxamide]",LC50,"[1]; Table 6, MTS",1920 nM
CCOCCOCCOc1nc(NC(=O)c2ccc([N+](=O)[O-])s2)c2cnn(-c3ccc(C(C)(C)C)cc3)c2n1 [Compound 6-61],LC50,"[1]; Table 6, MTS",540 nM
"CCCC(=O)N1CCC(n2ncc3c(NC(=O)c4ccc([N+](=O)[O-])s4)nc(-c4ccc(F)nc4)nc32)CC1 [Compound 9-7, N-(1-(1-butyrylpiperidin-4-yl)-6-(6-fluoropyridin-3-yl)-1H-pyrazolo[3,4-d]pyrimidin-4-yl)-5-nitrothiophene-2-carboxamide]",LC50,"[1]; Table 9, MTS",> 5000 nM
"CC(C)(C)c1ccc(-n2ncc3c(NC(=O)c4ccc([N+](=O)[O-])s4)nc(N4CC(F)(F)C4)nc32)cc1 [Compound 6-65, N-(1-(4-(tert-butyl)phenyl)-6-(3,3-difluoroazetidin-1-yl)-1H-pyrazolo[3,4-d]pyrimidin-4-yl)-5-nitrothiophene-2-carboxamide]",LC50,"[1]; Table 6, MTS",320 nM
"Cc1ccc(-c2nc(NC(=O)c3ccc([N+](=O)[O-])s3)c3cnn(C4CCCCC4)c3n2)s1 [Compound 10-7, N-(1-cyclohexyl-6-(5-methylthiophen-2-yl)-1H-pyrazolo[3,4-d]pyrimidin-4-yl)-5-nitrothiophene-2-carboxamide]",LC50,"[1]; Table 10, MTS",1530 nM
"O=C(Nc1nc(-c2cccc(F)c2)nc2c1cnn2-c1cccc(Cl)c1)c1ccc([N+](=O)[O-])s1 [Compound 6-34, N-(1-(3-chlorophenyl)-6-(3-fluorophenyl)-1H-pyrazolo[3,4-d]pyrimidin-4-yl)-5-nitrothiophene-2-carboxamide]",LC50,"[1]; Table 6, MTS",190 nM
CC(C)(C)c1ccc(-n2ncc3c(NC(=O)c4ccc([N+](=O)[O-])s4)nc(N4CCN(C(C)(C)C)CC4)nc32)cc1 [Compound 6-73],LC50,"[1]; Table 6, MTS",650 nM
"CC1CC(C)CC(n2ncc3c(NC(=O)c4ccc([N+](=O)[O-])s4)nc(-c4ccc(Cl)cc4F)nc32)C1 (stereo not shown) [Compound 10-72, N-(6-(4-chloro-2-fluorophenyl)-1-(3,5-dimethylcyclohexyl)-1H-pyrazolo[3,4-d]pyrimidin-4-yl)-5-nitrothiophene-2-carboxamide]",LC50,"[1]; Table 10, MTS",760 nM
